Measured values as given in US9206192B2, “Trolox derivative-modified fat-soluble anti-cancer pharmaceutical compounds, preparations, preparing methods and use thereof” (CHIA TAI TIANQING PHARMACEUTICAL GROUP CO., LTD, priority 2011, dated 2015).

Tests used:
Format in all cases: cell-based
[1] = system: human ovarian cancer cells (A2780s); test: In vitro cytotoxicity test, MTT assay, ovarian cancer cells; settings: 72 h incubation, read-out: GI50 Ovarian cancer cell (A2780s)
Experimental: (§1) In this example, GI50 values (the concentration of a drug that inhibits the growth of cancer cells by 50%) of the novel anti-cancer pharmaceutical compounds of the present invention on the inhibition of human ovarian cancer cells (A2780s), colon cancer cells (HT-29), liver cancer HePG2 cells and lung cancer cells (A549) were determined by MTT assay, and further compared with that of anti-cancer drug irinotecan to evaluate in vitro cytotoxicity of the pharmaceutical compounds of the present invention.
(§2) MTT assay: Cells in logarithmic growth phase were seeded in 96-well culture plate at 100 μL/well and a cell density of 10^5/mL. After the cells were incubated for 18 h, the medium was replaced, and thereto the test compound samples with different concentrations were then added at 150 μL/well. The blank group was the wells to which only a RPMI 1640 culture medium comprising 10% fetal bovine serum was added without the addition of cells (for zero setting). The negative control group was the wells to which the equal volume of RPMI 1640 culture medium comprising 10% fetal bovine serum was added and the positive control group was the wells to which the equal volume of 13 μg/ml positive drug was added. Each group had three wells. After the cells were incubated for 72 h, MTT (5 mg/mL) solution was added at 15 μL/well, and the cells were further incubated for 4 h. The supernatant was discarded, and DMSO was added at 150 μL/well. The mixture was shaken and blended for 10 min. After the crystal was completely dissolved, the absorbance (D) value of each well was detected on microplate reader at a wavelength of 490 nm. The cell growth inhibition rate was calculated according to the following equation: Cell growth inhibition rate=(1−average D value of test group/average D value of control group)×100%.

[2] = system: lung cancer cells (A549); test: In vitro cytotoxicity test, MTT assay, lung cancer cells; settings: Homo sapiens, 72 h incubation
Experimental: as §1, §2

[3] = system: colon cancer cells (HT-29); test: In vitro cytotoxicity test, MTT assay, colon cancer cells; settings: Homo sapiens, 72 h incubation
Experimental: as §1
as §2, with “After the cells were incubated for 72 h, MTT (5 mg/mL) solution was added at 15 μL/well, and the cells were further incubated for 4 h. The supernatant was discarded, and DMSO was added at 150 μL/well. The mixture was shaken and blended for 10 min.” left out, “The cell growth inhibition rate was calculated according to the following equation: Cell growth inhibition rate=(1−average D value of test group/average D value of control group)×100%.” left out

[4] = system: liver cancer HePG2 cells; test: In vitro cytotoxicity test, MTT assay, liver cancer cells; settings: Homo sapiens, 72 h incubation, read-out: GI50 Live cancer cells (HePG2)
Experimental: as §1
as §2, with “After the cells were incubated for 72 h, MTT (5 mg/mL) solution was added at 15 μL/well, and the cells were further incubated for 4 h. The supernatant was discarded, and DMSO was added at 150 μL/well. The mixture was shaken and blended for 10 min.” left out, “The cell growth inhibition rate was calculated according to the following equation: Cell growth inhibition rate=(1−average D value of test group/average D value of control group)×100%.” left out

Work on `CCCCCCCCCCCCOC(=O)[C@@]1(C)CCc2c(C)c(OC(=O)CCC(=O)Oc3ccc4nc5c(c(CC)c4c3)Cn3c-5cc4c(c3=O)COC(=O)[C@]4(O)CC)c(C)c(C)c2O1` [MXL-002, 7-ethyl-10-hydroxycamptothecin R-(+)-6-hydroxy-2,5,7,8-tetramethylchroman-2-carboxylic acid dodecyl ester-6-succinate] yielded a GI50 [1] of 17.8 nM and a GI50 [2] of 2100 nM.
`CCCCCCCCCCCCCCCCOC(=O)[C@@]1(C)CCc2c(C)c(OC(=O)CCC(=O)Oc3ccc4nc5c(c(CC)c4c3)Cn3c-5cc4c(c3=O)COC(=O)[C@]4(O)CC)c(C)c(C)c2O1` [MXL-003, 7-ethyl-10-hydroxycamptothecin R-(+)-6-hydroxy-2,5,7,8-tetramethylchroman-2-carboxylic acid hexadecyl ester-6-succinate] was tested, and the GI50 [1] was 16.9 nM, the GI50 [3] was 45 nM and the GI50 [4] was 164 nM. For the same compound, the GI50 [2] was 169 nM.
In the case of `CCCCCCOC(=O)[C@@]1(C)CCc2c(C)c(OC(=O)CCC(=O)Oc3ccc4nc5c(c(CC)c4c3)Cn3c-5cc4c(c3=O)COC(=O)[C@]4(O)CC)c(C)c(C)c2O1` [MXL-001, 7-ethyl-10-hydroxycamptothecin R-(+)-6-hydroxy-2,5,7,8-tetramethylchroman-2-carboxylic acid n-hexyl ester-6-succinate], the GI50 [1] was 40.9 nM and the GI50 [2] was 4600 nM.
In the case of `CCc1c2c(nc3ccc(OC(=O)N4CCC(N5CCCCC5)CC4)cc13)-c1cc3c(c(=O)n1C2)COC(=O)[C@]3(O)CC` [Irinotecan, irinotecan, reference compound], the GI50 [1] was 19300 nM, the GI50 [3] was 15200 nM and the GI50 [4] was 9440 nM. For the same compound, the GI50 [2] was 58.1 nM.
